Test results reported in US11008313B2, “Substituted 1-methyl-1,2,3,4-tetrahydroisoquinoline molecules as PCSK9 allosteric binders” (Merck Sharp & Dohme Corp., priority 2016, dated 2021).

What was measured:
PCSK9 [1] = target: T1, PCSK9 (Homo sapiens, UniProt Q8NBP7); assay: Differential scanning calorimetry (DSC) assay, direct binding / thermal stabilization of PCSK9; settings: Tm(with compound)−Tm(no compound); 2 μM PCSK9, 300 μM test compound
Protocol: Differential scanning calorimetry (DSC) was used as a biophysical method to confirm direct binding to PCSK9. A solution containing 2 μM PCSK9 with or without 300 μM test compound in 25 mM HEPES (pH 7.5)/150 mM NaCl/1 mM CaCl2/3.75% DMSO was transferred to the sample cell of the DSC instrument, while buffer alone was placed in the reference cell. Both cells were heated at a constant rate (200° C./hr) from 20-80° C. while recording the excess heat capacity of the sample cell relative to the reference cell. Each thermogram was analyzed to provide the melting temperature (Tm) of the protein.
The higher the temperature shift generally, the higher the affinity.

PCSK9 [2] = target: T1, PCSK9; assay: Fluorescence polarization competition binding assay (probe: compound of Example 57); settings: 2 μM PCSK9, 50 nM compound of Example 57 as probe, overnight incubation; read-out: FP IC
Protocol: Relative compound affinities were determined using a competition binding assay with a fluorescence polarization format. Solution (49 μL) containing 2 μM PCSK9 and 50 nM compound of Example 57 in 20 mM HEPES (pH 7.5)/150 mM NaCl/1 mM CaCl2/0.005% P-20 was dispensed to wells of a 384-well black non-binding microplate before the addition of 1 μL of test compound or DMSO. After mixing, the plate was centrifuged and sealed for overnight incubation in the dark. The anisotropy signal was read using a fluorescence polarization protocol on a Perkin-Elmer Envision plate reader. The % inhibition was determined relative to the window defined by the DMSO control wells and wells containing 50 nM probe in the absence of PCSK9.

T1 sequence (Q8NBP7 153-692): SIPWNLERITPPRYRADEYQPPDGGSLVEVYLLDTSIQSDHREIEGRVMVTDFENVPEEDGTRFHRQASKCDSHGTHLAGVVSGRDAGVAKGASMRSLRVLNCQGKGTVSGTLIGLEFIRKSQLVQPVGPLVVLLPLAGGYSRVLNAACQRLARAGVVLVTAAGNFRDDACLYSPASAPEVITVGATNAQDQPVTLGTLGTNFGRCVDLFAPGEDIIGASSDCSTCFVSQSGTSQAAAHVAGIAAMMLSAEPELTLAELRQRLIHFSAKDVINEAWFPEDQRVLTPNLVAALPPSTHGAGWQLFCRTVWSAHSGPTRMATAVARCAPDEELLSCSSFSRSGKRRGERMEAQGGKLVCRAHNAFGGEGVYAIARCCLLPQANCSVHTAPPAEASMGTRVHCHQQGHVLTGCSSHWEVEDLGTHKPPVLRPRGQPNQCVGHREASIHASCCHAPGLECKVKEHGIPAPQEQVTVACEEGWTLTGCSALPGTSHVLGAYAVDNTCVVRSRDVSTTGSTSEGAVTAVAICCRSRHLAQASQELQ

ΔTm at 300 µM (PCSK9 [1]) [°C]	IC50 (PCSK9 [2]) [nM]	Structure (SMILES)
5.55	902	COc1ccc(Oc2cc3c(cc2OC)CCN[C@]3(C)CC(=O)Nc2nccs2)cc1F [Example 10, (R)-2-(7-(3-fluoro-4-methoxyphenoxy)-6-methoxy-1-methyl-1,2,3,4-tetrahydroisoquinolin-1-yl)-N-(thiazol-2-yl)acetamide]
5.69	756	COc1cccc(NC(=O)C[C@@]2(C)NCCc3cc(OC)c(Oc4cccc(F)c4)cc32)c1 [Example 11, (R)-2-(7-(3-fluorophenoxy)-6-methoxy-1-methyl-1,2,3,4-tetrahydroisoquinolin-1-yl)-N-(3-methoxyphenyl)acetamide]
-0.225	753	COc1cc2c(cc1Oc1cccc(F)c1)[C@@](C)(CC(=O)Nc1cccc3[nH]ccc13)NCC2 [Example 12, (R)-2-(7-(3-fluorophenoxy)-6-methoxy-1-methyl-1,2,3,4-tetrahydroisoquinolin-1-yl)-N-(1H-indol-4-yl)acetamide]
8.4	99.3	C[C@]1(CC(=O)Nc2nccs2)NCCc2cc(OCC3CCCO3)c(Oc3ccc(-c4ccc(C(=O)O)cc4)c(F)c3)cc21 (some centres unmarked) [Example 13]
5.89	0.237	COc1cc2c(cc1Oc1ccc(-c3c[nH]c(C(=O)O)c3)c(F)c1)[C@@](C)(CC(=O)Nc1nccs1)NCC2 [Example 14, (R)-4-(2-fluoro-4-((6-methoxy-1-methyl-1-(2-oxo-2-(thiazol-2-ylamino)ethyl)-1,2,3,4-tetrahydroisoquinolin-7-yl)oxy)phenyl)-1H-pyrrole-2-carboxylic acid]
3.31	3.76	COC(=O)C1(c2ccc(-c3ccc(Oc4cc5c(cc4OC)CCN[C@]5(C)CC(=O)Nc4nccs4)cn3)cc2)CC1 [Example 15, methyl (R)-1-(4-(5-((6-methoxy-1-methyl-1-(2-oxo-2-(thiazol-2-ylamino)ethyl)-1,2,3,4-tetrahydroisoquinolin-7-yl)oxy)pyridin-2-yl)phenyl)cyclopropane-1-carboxylate]
3.57	4.15	COC(=O)CCc1ccc(-c2ccc(Oc3cc4c(cc3OC)CCN[C@]4(C)CC(=O)Nc3nccs3)cn2)cc1 [Example 16, methyl (R)-3-(4-(5-((6-methoxy-1-methyl-1-(2-oxo-2-(thiazol-2-ylamino)ethyl)-1,2,3,4-tetrahydroisoquinolin-7-yl)oxy)pyridin-2-yl)phenyl)propanoate]
2.62	11.5	COC(=O)c1cc(-c2ccc(Oc3cc4c(cc3OC)CCN[C@]4(C)CC(=O)Nc3nccs3)cn2)c[nH]1 [Example 17, methyl (R)-4-(5-((6-methoxy-1-methyl-1-(2-oxo-2-(thiazol-2-ylamino)ethyl)-1,2,3,4-tetrahydroisoquinolin-7-yl)oxy)pyridin-2-yl)-1H-pyrrole-2-carboxylate]
7.62	94.3	C[C@]1(CC(=O)Nc2nccs2)NCCc2cc(OCc3ccccn3)c(Oc3ccc(-c4ccc(C(=O)O)cc4)c(F)c3)cc21 [Example 18, (R)-2′-fluoro-4′-((1-methyl-1-(2-oxo-2-(thiazol-2-ylamino)ethyl)-6-(pyridin-2-ylmethoxy)-1,2,3,4-tetrahydroisoquinolin-7-yl)oxy)-[1,1′-biphenyl]-4-carboxylic acid]
9.05	162	C[C@]1(CC(=O)Nc2nccs2)NCCc2cc(OCc3ncccn3)c(Oc3ccc(-c4ccc(C(=O)O)cc4)c(F)c3)cc21 [Example 19, (R)-2′-fluoro-4′-((1-methyl-1-(2-oxo-2-(thiazol-2-ylamino)ethyl)-6-(pyrimidin-2-ylmethoxy)-1,2,3,4-tetrahydroisoquinolin-7-yl)oxy)-[1,1′-biphenyl]-4-carboxylic acid]
8.56	188	C[C@]1(CC(=O)Nc2nccs2)NCCc2cc(OCC3CCCO3)c(Oc3ccc(-c4c[nH]c5c(C(=O)O)cccc45)c(F)c3)cc21 (stereo partly drawn) [Example 20, 3-(2-fluoro-4-(((1R)-1-methyl-1-(2-oxo-2-(thiazol-2-ylamino)ethyl)-6-((tetrahydrofuran-2-yl)methoxy)-1,2,3,4-tetrahydroisoquinolin-7-yl)oxy)phenyl)-1H-indole-7-carboxylic acid]
6.58	200	COc1cc2c(cc1Oc1ccc(-c3c[nH]c4c(C(=O)O)cccc34)c(F)c1)[C@@](C)(CC(=O)Nc1nccs1)NCC2 [Example 21, (R)-3-(2-fluoro-4-((6-methoxy-1-methyl-1-(2-oxo-2-(thiazol-2-ylamino)ethyl)-1,2,3,4-tetrahydroisoquinolin-7-yl)oxy)phenyl)-1H-indole-7-carboxylic acid]
7.52	211	COc1cc2c(cc1Oc1ccc(-c3ccc(C(=O)O)cc3)c(F)c1)[C@@](C)(CC(=O)Nc1nccs1)NCC2 [Example 22, (R)-2′-fluoro-4′-((6-methoxy-1-methyl-1-(2-oxo-2-(thiazol-2-ylamino)ethyl)-1,2,3,4-tetrahydroisoquinolin-7-yl)oxy)-[1,1′-biphenyl]-4-carboxylic acid]
8.71	228	C[C@]1(CC(=O)Nc2nccs2)NCCc2cc(OCC3CCCCO3)c(Oc3ccc(-c4ccc(C(=O)O)cc4)c(F)c3)cc21 (stereo partly drawn) [Example 23, 2′-fluoro-4′-(((1R)-1-methyl-1-(2-oxo-2-(thiazol-2-ylamino)ethyl)-6-((tetrahydro-2H-pyran-2-yl)methoxy)-1,2,3,4-tetrahydroisoquinolin-7-yl)oxy)-[1,1′-biphenyl]-4-carboxylic acid]
7.2	261	Cc1noc(COc2cc3c(cc2Oc2ccc(-c4ccc(C(=O)O)cc4)c(F)c2)[C@@](C)(CC(=O)Nc2nccs2)NCC3)n1 [Example 24, (R)-2′-fluoro-4′-((1-methyl-6-((3-methyl-1,2,4-oxadiazol-5-yl)methoxy)-1-(2-oxo-2-(thiazol-2-ylamino)ethyl)-1,2,3,4-tetrahydroisoquinolin-7-yl)oxy)-[1,1′-biphenyl]-4-carboxylic acid]
6.6	302	COc1cc2c(cc1Oc1ccc(-c3ccc(C(=O)O)cc3F)c(F)c1)[C@@](C)(CC(=O)Nc1nccs1)NCC2 [Example 25, (R)-2,2′-difluoro-4′-((6-methoxy-1-methyl-1-(2-oxo-2-(thiazol-2-ylamino)ethyl)-1,2,3,4-tetrahydroisoquinolin-7-yl)oxy)-[1,1′-biphenyl]-4-carboxylic acid]
5.75	386	COc1cc2c(cc1Oc1ccc(-c3ccc(C(=O)O)cc3)cc1)[C@@](C)(CC(=O)Nc1nccs1)NCC2 [Example 26, (R)-4′-((6-methoxy-1-methyl-1-(2-oxo-2-(thiazol-2-ylamino)ethyl)-1,2,3,4-tetrahydroisoquinolin-7-yl)oxy)-[1,1′-biphenyl]-4-carboxylic acid]
7.11	386	COc1cc2c(cc1Oc1ccc(-c3ccc(C(=O)O)c(F)c3)c(F)c1)[C@@](C)(CC(=O)Nc1nccs1)NCC2 [Example 27, (R)-2′,3-difluoro-4′-((6-methoxy-1-methyl-1-(2-oxo-2-(thiazol-2-ylamino)ethyl)-1,2,3,4-tetrahydroisoquinolin-7-yl)oxy)-[1,1′-biphenyl]-4-carboxylic acid]
6.91	407	COc1cc2c(cc1Oc1ccc(-c3ccc(/C=C/C(=O)O)cc3)c(F)c1)[C@@](C)(CC(=O)Nc1nccs1)NCC2 [Example 28, (RE)-3-(2′-fluoro-4′-((6-methoxy-1-methyl-1-(2-oxo-2-(thiazol-2-ylamino)ethyl)-1,2,3,4-tetrahydroisoquinolin-7-yl)oxy)-[1,1′-biphenyl]-4-yl)acrylic acid]
5.37	416	COc1cc2c(cc1Oc1ccc(-c3ccc(C(=O)O)cc3F)cc1)[C@@](C)(CC(=O)Nc1nccs1)NCC2 [Example 29, (R)-2-fluoro-4′-((6-methoxy-1-methyl-1-(2-oxo-2-(thiazol-2-ylamino)ethyl)-1,2,3,4-tetrahydroisoquinolin-7-yl)oxy)-[1,1′-biphenyl]-4-carboxylic acid]
5.48	450	COc1cc2c(cc1Oc1ccc(-c3ccc(CCC(=O)O)cc3)cc1)[C@@](C)(CC(=O)Nc1nccs1)NCC2 [Example 30, (R)-3-(4′-((6-methoxy-1-methyl-1-(2-oxo-2-(thiazol-2-ylamino)ethyl)-1,2,3,4-tetrahydroisoquinolin-7-yl)oxy)-[1,1′-biphenyl]-4-yl)propanoic acid]
5.84	522	COc1cc2c(cc1Oc1ccc(-c3ccc(CC(=O)O)cc3)c(F)c1)[C@@](C)(CC(=O)Nc1nccs1)NCC2 [Example 31, (R)-2-(2′-fluoro-4′-((6-methoxy-1-methyl-1-(2-oxo-2-(thiazol-2-ylamino)ethyl)-1,2,3,4-tetrahydroisoquinolin-7-yl)oxy)-[1,1′-biphenyl]-4-yl)acetic acid]
